Data reported in patent US20060069132A1, “Azolecarboxamide herbicides” (priority 2004, published 2006).

Assays:
[1] = system: velvetleaf; test: Test A pre-/postemergence herbicide test; format: in vivo, Abutilon theophrasti; conditions: for Plant response rating, Velvetleaf: Postemergence; for Velvetleaf plant response rating: Preemergence
Outline: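 Both application timings were run together: directed soil spray over freshly planted seeds in sandy loam, and runoff spray onto 2–10 cm seedlings. Evaluation after ~10 days in greenhouse used a 0–100 visual scale versus untreated controls.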

[2] = system: kochia; test: Test C pre-/postemergence herbicide test; format: in vivo, Kochia scoparia
Outline: (§1)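 Emerged plants at the 1- to 4-leaf stage (2–18 cm), or freshly planted seeds, received test chemicals in a non-phytotoxic solvent mixture with surfactant. Response was visually scored against controls after 12 to 14 days in the greenhouse, on a 0 (no effect) to 100 (complete control) scale.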

[3] = system: morningglory; test: Test C pre-/postemergence herbicide test; format: in vivo, Ipomoea coccinea; set-up: key to Plant response rating, Morningglory: 0 = no effect, 100 = complete control
Outline: as §1

[4] = system: soybean; test: Test C pre-/postemergence herbicide test; format: in vivo, Glycine max
Outline: as §1

[5] = system: common ragweed; test: Test C pre-/postemergence herbicide test; format: in vivo, Ambrosia elatior; set-up: key to Plant response rating, Ragweed: 0 = no effect, 100 = complete control
Outline: as §1

[6] = system: Surinam grass; test: Test C pre-/postemergence herbicide test; format: in vivo, Urochloa decumbens
Outline: as §1

[7] = system: corn; test: Test C pre-/postemergence herbicide test; format: in vivo, Zea mays
Outline: as §1

[8] = system: giant foxtail; test: Test C pre-/postemergence herbicide test; format: in vivo, Setaria faberi
Outline: as §1

[9] = 2000 g ai/ha, 0 to 100 scale, 0 no effect, 100 complete control
[10] = 500 g ai/ha, visual rating, 0 to 100 scale (0 no effect, 100 complete control)
[11] = 125 g ai/ha, scale 0 (no effect) to 100 (complete control), visual, 12 to 14 days, preemergence
[12] = 250 g ai/ha, scale 0 to 100 (0 no effect, 100 complete control), visual, 12 to 14 days, preemergence
[13] = Preemergence, 500 g ai/ha, scale 0 to 100, 0 no effect, 100 complete control
[14] = Postemergence, 125 g ai/ha, scale 0 to 100, 0 no effect, 100 complete control
[15] = Postemergence, 250 g ai/ha, scale 0 to 100, 0 no effect, 100 complete control
[16] = postemergence, 62 g ai/ha, scale 0 to 100

Structure (SMILES): CCn1nc(C(C)(C)C)cc1C(=O)Nc1cccc(C(=O)NCC(C)C)c1 [Compound 61]
- Plant response rating, Velvetleaf [1, 9]: 15
- Velvetleaf plant response rating [1, 10]: 55
- Velvetleaf plant response rating ([1]; 2000 g ai/ha, visual rating, 0 to 100 scale (0 no effect, 100 complete control)): 85
- Plant response rating (0 = no effect, 100 = complete control), Kochia ([2]; 62 g ai/ha, preemergence): 10
- Plant response rating, Kochia [2, 11]: 100
- Plant response rating, Kochia [2, 12]: 100
- Kochia plant response rating [2, 13]: 100
- Plant response rating (0 = no effect, 100 = complete control), Morningglory ([3]; 62 g ai/ha, preemergence): 0
- Plant response rating, Morningglory [3, 11]: 0
- Plant response rating, Morningglory [3, 12]: 5
- Morningglory plant response rating [3, 13]: 100
- Plant response rating (0 = no effect, 100 = complete control), Soybean ([4]; 62 g ai/ha, preemergence): 0
- Plant response rating, Soybean [4, 11]: 0
- Plant response rating, Soybean [4, 12]: 0
- Soybean plant response rating [4, 13]: 10
- Plant response rating (0 = no effect, 100 = complete control), Ragweed ([5]; 62 g ai/ha, preemergence): 0
- Plant response rating, Ragweed [5, 11]: 0
- Plant response rating, Ragweed [5, 12]: 80
- Ragweed plant response rating [5, 13]: 80
- Plant response rating (0 = no effect, 100 = complete control), Surinam Grass ([6]; 62 g ai/ha, preemergence): 0
- Plant response rating, Surinam Grass [6, 11]: 0
- Plant response rating, Surinam Grass [6, 12]: 5
- Surinam Grass plant response rating [6, 13]: 5
- Plant response rating (0 = no effect, 100 = complete control), Corn ([7]; 62 g ai/ha, preemergence): 0
- Plant response rating, Corn [7, 11]: 0
- Plant response rating, Corn [7, 12]: 0
- Corn plant response rating [7, 13]: 0
- Plant response rating (0 = no effect, 100 = complete control), Foxtail, Giant ([8]; 62 g ai/ha, preemergence): 0
- Plant response rating, Foxtail, Giant [8, 11]: 20
- Plant response rating, Foxtail, Giant [8, 12]: 40
- Foxtail, Giant plant response rating [8, 13]: 60

Structure (SMILES): CCn1nc(C(C)(C)C)cc1C(=O)Nc1cccc(C(=O)NC2CC2)c1 [Compound 44]
- Plant response rating, Velvetleaf [1, 9]: 65
- Velvetleaf plant response rating [1, 10]: 20
- Velvetleaf plant response rating [1, 9]: 35
- Plant response rating (0 = no effect, 100 = complete control), Kochia ([2]; 62 g ai/ha, preemergence): 0
- Plant response rating, Kochia [2, 11]: 10
- Plant response rating, Kochia [2, 12]: 10
- Plant response rating, Kochia [2, 14]: 90
- Plant response rating, Kochia [2, 15]: 90
- Plant response rating, Kochia [2, 16]: 90
- Plant response rating (0 = no effect, 100 = complete control), Morningglory ([3]; 62 g ai/ha, preemergence): 0
- Plant response rating, Morningglory [3, 11]: 0
- Plant response rating, Morningglory [3, 12]: 0
- Plant response rating, Morningglory [3, 15]: 80
- Plant response rating, Morningglory [3, 16]: 50
- Plant response rating (0 = no effect, 100 = complete control), Soybean ([4]; 62 g ai/ha, preemergence): 0
- Plant response rating, Soybean [4, 11]: 10
- Plant response rating, Soybean [4, 12]: 10
- Plant response rating, Soybean [4, 15]: 100
- Plant response rating, Soybean [4, 16]: 100
- Plant response rating (0 = no effect, 100 = complete control), Ragweed ([5]; 62 g ai/ha, preemergence): 0
- Plant response rating, Ragweed [5, 11]: 30
- Plant response rating, Ragweed [5, 12]: 70
- Plant response rating, Ragweed [5, 15]: 90
- Plant response rating, Ragweed [5, 16]: 50
- Plant response rating (0 = no effect, 100 = complete control), Surinam Grass ([6]; 62 g ai/ha, preemergence): 10
- Plant response rating, Surinam Grass [6, 11]: 10
- Plant response rating, Surinam Grass [6, 12]: 10
- Plant response rating, Surinam Grass [6, 15]: 40
- Plant response rating, Surinam Grass [6, 16]: 40
- Plant response rating (0 = no effect, 100 = complete control), Corn ([7]; 62 g ai/ha, preemergence): 0
- Plant response rating, Corn [7, 11]: 0
- Plant response rating, Corn [7, 12]: 0
- Plant response rating, Corn [7, 14]: 70
- Plant response rating, Corn [7, 15]: 80
- Plant response rating, Corn [7, 16]: 70
- Plant response rating (0 = no effect, 100 = complete control), Foxtail, Giant ([8]; 62 g ai/ha, preemergence): 10
- Plant response rating, Foxtail, Giant [8, 11]: 10
- Plant response rating, Foxtail, Giant [8, 12]: 10
- Plant response rating, Foxtail, Giant [8, 14]: 30
- Plant response rating, Foxtail, Giant [8, 15]: 50
- Plant response rating, Foxtail, Giant [8, 16]: 30
